Assay results from US11484607B2, “PSMA-targeted NIR dyes and their uses” (On Target Laboratories, LLC, priority 2015, dated 2022).

Assays:
[1] = target: T1, PSMA (Homo sapiens, UniProt Q04609); assay: Relative binding affinity of DUPA-NIR conjugates with respect to DUPA-FITC on 22Rv1 cells, flow cytometry; conditions: for Kd: 1 h at 37° C., 100 nM DUPA-FITC; for affinity for PSMA (in words): in vitro binding affinity data
T1 construct: host or cells: 22Rv1 human prostate cancer cells
Description: (§1) FIG. 3—Relative binding affinities of DUPA-NIR conjugates 1-9 with respect to DUPA-FITC (14). PSMA-positive 22Rv1 human prostate cancer cells were incubated for 1 h at 37° C. in the presence of 100 nM DUPA-FITC with increasing concentrations of DUPA-NIR conjugates. […] Cell bound fluorescence was assayed as using flow cytometry.
as §1, with “6—Relative” for “3—Relative”, “with aromatic amino acids linkers” for “1-9”
as §1, with “3 Relative” for “3—Relative”
in vitro studies. […] PSMA-positive 22Rv1 human prostate cancer cells were incubated for 1 h at 37° C. in the presence of 100 nM DUPA-FITC with increasing concentrations of DUPA-NIR conjugates. […] Cell bound fluorescence was assayed as using flow cytometry.
PSMA-positive 22Rv1 human prostate cancer cells were incubated for 1 h at 37° C. in the presence of 100 nM DUPA-FITC with increasing concentrations of DUPA-NIR conjugates. […] Cell bound fluorescence was assayed as using flow cytometry.
as §1, with “24: Relative” for “3—Relative”, “conjugates” for “conjugates 1-9”
PSMA-positive 22Rv1 human prostate cancer cells were incubated for 1 h at 37° C. in the presence of 100 nM DUPA-FITC with increasing concentrations of DUPA-NIR conjugates. […] Cell bound fluorescence was assayed as using flow cytometry
Cancer cells were incubated for 1 h at 37° C. in the presence of 100 nM DUPA-FITC with increasing concentrations of compound 15. […] Cell bound fluorescence was assayed as using flow cytometry.

[2] = system: human prostate tumor xenografts (22Rv1 cells); assay: Tissue biodistribution and tumor-to-tissue fluorescence ratio of DUPA-NIR conjugates, IVIS imaging; type: in vivo, mice; conditions: 2 h after tail vein injection
Description: In vivo studies. More specifically, biodistribution of DUPA-NIR conjugates 1-9 was monitored using fluorescence imaging of mice bearing human prostate tumor xenografts (22Rv1 cells). Male nude mice with 22Rv1 tumor xenografts were injected with DUPA-NIR dye conjugates via tail vein. The mice were euthanized 2 h after administration of the DUPA-NIR dye conjugate, selected tissues were harvested, and tissues were imaged with IVIS imager (ex=745 nm, em=ICG, exposure time=1 s).
The conjugates were also tested to show the ratio of tumor-to-tissue fluorescence. […] After imaging, fluorescence within a Region of interest (ROI) was measured for each tissue using In Vivo imaging software and tumor-to-tissue fluorescence was then calculated
(§2) in vivo studies. […] Male nude mice with 22Rv1 tumor xenografts were injected with DUPA-NIR dye conjugates via tail vein. The mice were euthanized 2 h after administration of the DUPA-NIR dye conjugate, selected tissues were harvested, and tissues were imaged with IVIS imager (ex=745 nm, em=ICG, exposure time=1 s). After imaging, fluorescence within a Region of interest (ROI) was measured for each tissue using In Vivo imaging software and tumor-to-tissue fluorescence was then calculated.
Male nude mice with 22Rv1 tumor xenografts were injected with DUPA-NIR dye conjugates via tail vein. The mice were euthanized 2 h after administration of the DUPA-NIR dye conjugate, selected tissues were harvested, and tissues were imaged with IVIS imager (ex=745 nm, em=ICG, exposure time=1 s). After imaging, fluorescence within a Region of interest (ROI) was measured for each tissue using In Vivo imaging software and tumor-to-tissue fluorescence was then calculated.
as §2, with “In vivo” for “in vivo”

[3] = system: 22Rv1 human prostate tumor xenograft; assay: Time dependent whole-body fluorescence imaging of DUPA-NIR conjugates, IVIS imager; type: in vivo, mouse; conditions: 6 or 20 nmol, imaged at different time intervals
Description: 22Rv1 human prostate tumor xenograft bearing mouse was injected with 20 nmol of 15 and imaged with IVIS imager (ex=745 nm, em=ICG, exposure time=1 s) at different time intervals.
22Rv1 human prostate tumor xenograft bearing mouse was injected with 20 nmol of 23 and imaged with IVIS imager (ex=745 nm, em=ICG, exposure time=1 s) at different time intervals.
22Rv1 human prostate tumor xenograft bearing mouse was injected with 20 nmol of 25 and imaged with IVIS imager (ex=745 nm, em=ICG, exposure time=1 s) at different time intervals
22Rv1 human prostate tumor xenograft bearing mouse was injected with 6 nmol of 35 and imaged with IVIS imager (ex=745 nm, em=ICG, exposure time=1 s) at different time intervals.
22Rv1 human prostate tumor xenograft bearing mouse was injected with 6 nmol of 36 and imaged with IVIS imager (ex=745 nm, em=ICG, exposure time=1 s) at different time intervals.
22Rv1 human prostate tumor xenograft bearing mouse was injected with 20 nmol of 39 and imaged with IVIS imager (ex=745 nm, em=ICG, exposure time=1 s) at different time intervals.
22Rv1 human prostate tumor xenograft bearing mouse was injected with 20 nmol of 40 and imaged with IVIS imager (ex=745 nm, em=ICG, exposure time=1 s) at different time intervals.
22Rv1 human prostate tumor xenograft bearing mouse was injected with 20 nmol of 41 and imaged with IVIS imager (ex=745 nm, em=ICG, exposure time=1 s) at different time intervals.
FIG. 25: Overlay of whole body or half body fluorescence image over white light images after adjusting the threshold. 22Rv1 human prostate tumor xenograft bearing mouse was injected with 20 nmol of 54 and imaged with IVIS imager (ex=745 nm, em=ICG, exposure time=1 s) at different time intervals.
22Rv1 human prostate tumor xenograft bearing mouse was injected with 20 nmol of 55 and imaged with IVIS imager (ex=745 nm, em=ICG, exposure time=1 s) at different time intervals.
22Rv1 human prostate tumor xenograft bearing mouse was injected with 20 nmol of 56 and imaged with IVIS imager (ex=745 nm, em=ICG, exposure time=1 s) at different time intervals.
22Rv1 human prostate tumor xenograft bearing mouse was injected with 20 nmol of 57 and imaged with IVIS imager (ex=745 nm, em=ICG, exposure time=1 s) at different time intervals
22Rv1 human prostate tumor xenograft bearing mouse was injected with 20 nmol of 58 and imaged with IVIS imager (ex=745 nm, em=ICG, exposure time=1 s) at different time intervals
22Rv1 human prostate tumor xenograft bearing mouse was injected with 20 nmol of 60 and imaged with IVIS imager (ex=745 nm, em=ICG, exposure time=1 s) at different time intervals.
in vivo studies. […] 22Rv1 human prostate tumor xenograft bearing mouse was injected with 20 nmol of 63 and imaged with IVIS imager (ex=745 nm, em=ICG, exposure time=1 s) at different time intervals.
22Rv1 human prostate tumor xenograft bearing mouse was injected with 6 nmol of 63 and imaged with IVIS imager (ex=745 nm, em=ICG, exposure time=1 s) at different time intervals.
22Rv1 human prostate tumor xenograft bearing mouse was injected with 20 nmol of 64 and imaged with IVIS imager (ex=745 nm, em=ICG, exposure time=1 s) at different time intervals.
22Rv1 human prostate tumor xenograft bearing mouse was injected with 6 nmol of 15 and imaged with IVIS imager (ex=745 nm, em=ICG, exposure time=1 s) at different time intervals.

[4] = system: basophils; assay: Basophil activation test (Flow CAST) in human blood samples; type: cell-based
Description: Tolerability Studies: The blood samples were collected into hirudin tubes and used within an hour of collection. For each donor, 4 different tubes were prepared for allergen, positive controls, and negative control. Samples were analyzed using Flow CAST® high sensitivity Basophil Activation Test (BAT). Briefly, stimulation buffer (100 μL, background) or anti-FcεER antibody (100 μL) or fMLP (100 μL) or OTL78 (75 μM in 100 μL of saline) was added to tubes containing stimulation buffer (200 μL). 100 μL of blood was added to each tube and mixed gently. After adding staining reagent (40 μL) containing anti-CD63-CD203c-PE-DY647 and anti-CCR3-PE, each tube was mixed gently and incubated for 15 minutes at 37° C. Lysing reagent (2 mL) was added to each tube, mixed gently, incubated for 5-10 minutes at room temperature, and centrifuged for 5 minutes at 500×g. The supernatant was discarded and the cells were re-suspended in wash buffer (900 μL) and analyzed using flow cytometry. CD63-CD203c-PE-DY647+/CCR3-PE+ cell population considered as the activated basophils.

[5] = conjugates with variable length spacers

T1 sequence (Q04609 whole entry): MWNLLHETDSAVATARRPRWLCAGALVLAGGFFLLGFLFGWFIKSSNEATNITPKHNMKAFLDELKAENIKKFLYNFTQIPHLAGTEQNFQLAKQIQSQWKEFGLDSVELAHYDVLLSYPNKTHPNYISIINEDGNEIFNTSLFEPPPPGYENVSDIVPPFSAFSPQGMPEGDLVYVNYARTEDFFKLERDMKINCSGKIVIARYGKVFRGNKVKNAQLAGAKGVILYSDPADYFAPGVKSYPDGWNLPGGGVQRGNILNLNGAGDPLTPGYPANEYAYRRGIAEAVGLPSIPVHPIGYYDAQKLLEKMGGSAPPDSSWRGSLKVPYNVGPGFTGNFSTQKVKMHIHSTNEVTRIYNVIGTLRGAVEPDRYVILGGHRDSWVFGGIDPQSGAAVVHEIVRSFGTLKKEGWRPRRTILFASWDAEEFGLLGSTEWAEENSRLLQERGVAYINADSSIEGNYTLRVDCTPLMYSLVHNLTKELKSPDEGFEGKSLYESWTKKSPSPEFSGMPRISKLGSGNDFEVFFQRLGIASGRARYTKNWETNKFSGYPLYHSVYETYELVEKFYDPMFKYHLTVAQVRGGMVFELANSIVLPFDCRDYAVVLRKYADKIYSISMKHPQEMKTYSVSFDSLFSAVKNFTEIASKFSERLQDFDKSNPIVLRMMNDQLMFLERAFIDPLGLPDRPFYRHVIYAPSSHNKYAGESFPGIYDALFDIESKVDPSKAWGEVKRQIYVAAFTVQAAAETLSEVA

Row | SMILES | Kd [1, 5] [nM] | fluorescence intensity in the tumor / tumor accumulation [2] | tumor-to-background ratio (TBR), in words [2] | affinity for PSMA (in words) [1] | also measured
1 | CC1(C)C(/C=C/C2=C(Oc3ccc(C[C@H](NC(=O)CCCCCCCNC(=O)[C@H](Cc4ccccc4)NC(=O)[C@H](Cc4ccccc4)NC(=O)CC[C@H](NC(=O)N[C@@H](CCC(=O)O)C(=O)O)C(=O)O)C(=O)O)cc3)C(=C/C=C3/N(CCCCS(=O)(=O)O)c4ccc(S(=O)(=O)O)cc4C3(C)C)/CCC2)=[N+](CCCCS(=O)(=O)[O-])c2ccc(S(=O)(=O)O)cc21 [Compound 6] | 35.7 | lower | second |  | 
2 | CC1(C)C(/C=C/C2=C(SC[C@H](NC(=O)[C@H](Cc3ccccc3)NC(=O)CCCCCCCNC(=O)CC[C@H](NC(=O)N[C@@H](CCC(=O)O)C(=O)O)C(=O)O)C(=O)O)C(=C/C=C3/N(CCCCS(=O)(=O)O)c4ccc(S(=O)(=O)O)cc4C3(C)C)/CCC2)=[N+](CCCCS(=O)(=O)[O-])c2ccc(S(=O)(=O)O)cc21 [Compound 25] |  |  |  | very high affinity | Kd ([1]; conjugates with aromatic linkers): 6.3 nM; whole-body imaging [3]: very good whole-body imaging data within 2-4 hours
3 | CSCC[C@H](NC=O)C(=O)N[C@@H](CC(C)C)C(=O)N[C@@H](Cc1ccccc1)C(=O)O [fMLP, N-formylmethionyl-leucyl-phenylalanine] |  |  |  |  | positive response (% activated basophils) ([4]; FIG. 47E): 73.5%; stimulated index ([4]; FIG. 47E, ≥2 considered positive response): 29.5; Percent of basophile activation, Avg ([4]; average of 3 healthy subjects): 60%; Percent of basophile activation, Subject 1 ([4]; healthy subjects, OTL78 75 μM): 73.5%; Percent of basophile activation, Subject 2 ([4]; healthy subjects, OTL78 75 μM): 55.9%; Percent of basophile activation, Subject 3 ([4]; healthy subjects, OTL78 75 μM): 50.6%; SI = Avg/background ([4]; stimulation index, ≥2 considered positive response): 23.1
4 | CC1(C)C(=CC=C2CCCC(C=CC3=[N+](CCCCS(=O)(=O)[O-])c4ccc(S(=O)(=O)O)cc4C3(C)C)=C2Oc2ccc(CC(NC(=O)CC(NC(=O)C(Cc3ccccc3)NC(=O)C(Cc3ccccc3)NC(=O)CCCCCCCNC(=O)CCC(NC(=O)NC(CCC(=O)O)C(=O)O)C(=O)O)C(=O)O)C(=O)O)cc2)N(CCCCS(=O)(=O)O)c2ccc(S(=O)(=O)O)cc21 (stereo not drawn) [Compound 49] |  | very high tumor accumulation (high fluorescence intensity) | good | low binding affinity | 
5 | CC1(C)C(/C=C/C2=C(Oc3ccc(C[C@H](NC(=O)[C@H](CCCNC(=N)N)NC(=O)[C@H](CCCNC(=N)N)NC(=O)CCCCCCCNC(=O)CC[C@H](NC(=O)N[C@@H](CCC(=O)O)C(=O)O)C(=O)O)C(=O)O)cc3)C(=C/C=C3/N(CCCCS(=O)(=O)O)c4ccc(S(=O)(=O)O)cc4C3(C)C)/CCC2)=[N+](CCCCS(=O)(=O)[O-])c2ccc(S(=O)(=O)O)cc21 [Compound 39] |  |  |  |  | whole-body imaging [3]: very good whole-body imaging
6 | CC1(C)C(/C=C/C2=C(Oc3ccc(C[C@H](NC(=O)CCCCCCCNC(=O)[C@H](Cc4ccccc4)NC(=O)[C@H](Cc4ccccc4)NC(=O)C[C@H](NC(=O)CC[C@H](NC(=O)N[C@@H](CCC(=O)O)C(=O)O)C(=O)O)C(=O)O)C(=O)O)cc3)C(=C/C=C3/N(CCCCS(=O)(=O)O)c4ccc(S(=O)(=O)O)cc4C3(C)C)/CCC2)=[N+](CCCCS(=O)(=O)[O-])c2ccc(S(=O)(=O)O)cc21 [Compound 7] | 26.8 | lower | third best |  | 
7 | CC1(C)C(/C=C/C2=C(Oc3ccc(C[C@H](NC(=O)CCCCCCCNC(=O)CC[C@H](NC(=O)N[C@@H](CCC(=O)O)C(=O)O)C(=O)O)C(=O)O)cc3)C(=C/C=C3/N(CCCCS(=O)(=O)O)c4ccc(S(=O)(=O)O)cc4C3(C)C)/CCC2)=[N+](CCCCS(=O)(=O)[O-])c2ccc(S(=O)(=O)O)cc21 [Compound 4, DUPA-EAOA-Tyr-S0456] | 15.2 | higher fluorescence intensity | best | very high affinity | 
